Experimental data from patent US12497386B2, “Estrogen receptor-modulating compounds” (RADIUS PHARMACEUTICALS, INC., priority 2018, dated 2025).

Tested on: MCF-7 cells
Assay: MCF-7 Proliferation Inhibition Assay
Format: cell-based, human
Conditions: 10 pM dose of E2, 7 days incubation, CellTiterGlo viability
Procedure: Proliferation Assay in MCF-7 and T47D Cells
MCF-7 and T47D cells were stripped for 3 days in phenol red-free RPMI1640 media containing 10% charcoal-stripped fetal bovine serum (CS-FBS) and 1% Penicillin/streptomycin (P/S). Cells (volume of 90 μl/well) were seeded in 96 well plates at a density of 2500 cells/well for MCF-7 cells and 1500 cells/well for T47D cells. On the following day, plates were treated with the test compounds (10× concentration in media, volume of 10 μl/well added) both in the absence and in the presence of two doses of E2 (10 pM and 1 nM). The cells were incubated with test compounds for 7 days. The viability of the cells was assessed using CellTiterGlo (Promega, Cat #G7573) according to the manufacturer's instructions. Growth inhibition curves and IC50 values were calculated using the GraphPadPrism 6.0 software. Data values shown in Table 1 were obtained using the 10 pM dose of E2.

## Oc1ccc2c(c1)c(F)c(-c1ccccc1C(F)(F)F)n2Cc1ccc(CCNCC2CC2)cc1 [Compound D-40, 1-(4-(2-((Cyclopropylmethyl)amino)ethyl)benzyl)-3-fluoro-2-(2-(trifluoromethyl)phenyl)-1H-indol-5-ol]
Homo sapiens, MCF7, 168 h
  IC50: < 1 nM

## CCNCCc1ccc([C@@H]2c3ccc(O)cc3CC[C@@H]2c2ccccc2C)cc1 [LA-21, (5R,6S)-5-(4-(2-(Ethylamino)ethyl)phenyl)-6-(o-tolyl)-5,6,7,8-tetrahydronaphthalen-2-ol]
Homo sapiens, MCF7, 168 h
  IC50: < 1 nM

## Cc1ccccc1-c1c(F)c2c3cn[nH]c3ccc2n1Cc1ccc(CCNC2CC2)cc1 [Compound D-90, N-(4-((8-Fluoro-7-(o-tolyl)pyrrolo[3,2-e]indazol-6(3H)-yl)methyl)phenethyl)cyclopropanamine]
Homo sapiens, MCF7, 168 h
  IC50: < 1 nM

## Cc1ccccc1[C@H]1CCc2cc(O)ccc2[C@H]1c1ccc(CCNCC2CC2)cc1 [LA-22, (5R,6S)-5-(4-(2-((cyclopropylmethyl)amino)ethyl)phenyl)-6-(o-tolyl)-5,6,7,8-tetrahydronaphthalen-2-ol]
Homo sapiens, MCF7, 168 h
  IC50: < 1 nM

## Cc1ccccc1-c1c(F)c2cc(O)ccc2n1Cc1ccc(CCNCCF)cc1 [Compound D-70, 3-Fluoro-1-(4-(2-((2-fluoroethyl)amino)ethyl)benzyl)-2-(o-tolyl)-1H-indol-5-ol]
Homo sapiens, MCF7, 168 h
  IC50: < 1 nM

## COc1ccc(-c2c(F)c3cc(O)ccc3n2Cc2ccc(CCNCCCF)cc2)c(C)c1 [Compound D-104, 3-Fluoro-1-(4-(2-((3-fluoropropyl)amino)ethyl)benzyl)-2-(4-methoxy-2-methylphenyl)-1H-indol-5-ol]
Homo sapiens, MCF7, 168 h
  IC50: < 1 nM

## Cc1ccccc1-c1c(F)c2c3cn[nH]c3ccc2n1Cc1ccc(CCNCC2CC2)cc1 [Compound D-88, N-(Cyclopropylmethyl)-2-(4-((8-fluoro-7-(o-tolyl)pyrrolo[3,2-e]indazol-6(3H)-yl)methyl)phenyl)ethan-1-amine]
Homo sapiens, MCF7, 168 h
  IC50: < 1 nM

## COc1ccc(-c2c(C)c3cc(O)ccc3n2Cc2ccc(CCNC3CC3)cc2)cc1 [Compound D-02, 1-(4-(2-(Cyclopropylamino)ethyl)benzyl)-2-(4-methoxyphenyl)-3-methyl-1H-indol-5-ol]
Homo sapiens, MCF7, 168 h
  IC50: 1 to 10 nM

## CCCNCCc1ccc(Cn2c(-c3ccccc3-c3ccccc3)c(F)c3cc(O)ccc32)cc1 [Compound D-66, 2-([1,1′-Biphenyl]-2-yl)-3-fluoro-1-(4-(2-(propylamino)ethyl)benzyl)-1H-indol-5-ol]
Homo sapiens, MCF7, 168 h
  IC50: < 1 nM

## CCNCCc1ccc([C@@H]2c3ccc(O)cc3CC[C@@H]2c2ccccc2)cc1 [LA-18, (5R,6S)-5-(4-(2-(Ethylamino)ethyl)phenyl)-6-phenyl-5,6,7,8-tetrahydronaphthalen-2-ol]
Homo sapiens, MCF7, 168 h
  IC50: < 1 nM

## COc1ccc(-c2c(C)c3cc(O)ccc3n2Cc2ccc(CCNCC(F)(F)F)cc2)cc1 [Compound D-12, 2-(4-Methoxyphenyl)-3-methyl-1-(4-(2-((2,2,2-trifluoroethyl)amino)ethyl)benzyl)-1H-indol-5-ol]
Homo sapiens, MCF7, 168 h
  IC50: > 10 nM

## COc1ccc(-c2c(F)c3cc(O)ccc3n2Cc2ccc(CCNCCF)cc2)c(C)c1 [Compound D-103, 3-Fluoro-1-(4-(2-((2-fluoroethyl)amino)ethyl)benzyl)-2-(4-methoxy-2-methylphenyl)-1H-indol-5-ol]
Homo sapiens, MCF7, 168 h
  IC50: < 1 nM

## Cc1ccccc1-c1c(F)c2cc(O)ccc2n1Cc1ccc(CCNCCCF)cc1 [Compound D-69, 3-Fluoro-1-(4-(2-((3-fluoropropyl)amino)ethyl)benzyl)-2-(o-tolyl)-1H-indol-5-ol]
Homo sapiens, MCF7, 168 h
  IC50: < 1 nM

## CCCNCCc1ccc(Cn2c(-c3ccccc3OC)c(F)c3cc(O)ccc32)cc1 [Compound D-87, 3-Fluoro-2-(2-methoxyphenyl)-1-(4-(2-(propylamino)ethyl)benzyl)-1H-indol-5-ol]
Homo sapiens, MCF7, 168 h
  IC50: < 1 nM

## Cc1ccccc1-c1c(F)c2cc(O)ccc2n1Cc1ccc(CCNC2CC2)cc1 [Compound D-28, 1-(4-(2-(Cyclopropylamino)ethyl)benzyl)-3-fluoro-2-(o-tolyl)-1H-indol-5-ol]
Homo sapiens, MCF7, 168 h
  IC50: < 1 nM

## CCNCCc1ccc(Cn2c(-c3ccc(OC)cc3)c(Cl)c3cc(O)ccc32)cc1 [Compound D-13, 3-Chloro-1-(4-(2-(ethylamino)ethyl)benzyl)-2-(4-methoxyphenyl)-1H-indol-5-ol]
Homo sapiens, MCF7, 168 h
  IC50: 1 to 10 nM

## Cc1cccc(C)c1-c1c(F)c2cc(O)ccc2n1Cc1ccc(CCNC2CCC2)cc1 [Compound D-50, 1-(4-(2-(Cyclobutylamino)ethyl)benzyl)-2-(2,6-dimethylphenyl)-3-fluoro-1H-indol-5-ol]
Homo sapiens, MCF7, 168 h
  IC50: < 1 nM

## Cc1ccccc1-c1c(F)c2cc(O)ccc2n1Cc1ccc(CCNCC2CC2)cc1 [Compound D-39, 1-(4-(2-((Cyclopropylmethyl)amino)ethyl)benzyl)-3-fluoro-2-(o-tolyl)-1H-indol-5-ol]
Homo sapiens, MCF7, 168 h
  IC50: < 1 nM

## Oc1ccc2c(c1)c(F)c(-c1ccccc1C(F)(F)F)n2Cc1ccc(CCNC2CC2)cc1 [Compound D-33, 1-(4-(2-(Cyclopropylamino)ethyl)benzyl)-3-fluoro-2-(2-(trifluoromethyl)phenyl)-1H-indol-5-ol]
Homo sapiens, MCF7, 168 h
  IC50: < 1 nM

## Cc1ccccc1-c1sc2cc(O)ccc2c1Oc1ccc(CCNCC2CC2)cc1 [BT-12, 3-(4-(2-((Cyclopropylmethyl)amino)ethyl)phenoxy)-2-(o-tolyl)benzo[b]thiophen-6-ol]
Homo sapiens, MCF7, 168 h
  IC50: < 1 nM

## CCNCCc1ccc(Cn2c(-c3ccc(OC)cc3)c(F)c3cc(O)ccc32)cc1 [Compound D-16, 1-(4-(2-(Ethylamino)ethyl)benzyl)-3-fluoro-2-(4-methoxyphenyl)-1H-indol-5-ol]
Homo sapiens, MCF7, 168 h
  IC50: < 1 nM

## CCNCCc1ccc(Cn2c(-c3ccccc3C(F)(F)F)c(F)c3cc(O)ccc32)cc1 [Compound D-34, 1-(4-(2-(Ethylamino)ethyl)benzyl)-3-fluoro-2-(2-(trifluoromethyl)phenyl)-1H-indol-5-ol]
Homo sapiens, MCF7, 168 h
  IC50: < 1 nM

## CCNCCc1ccc(Cn2c(-c3ccc(OC)cc3)c(C)c3cc(O)ccc32)cc1 [Compound D-01, 1-(4-(2-(Ethylamino)ethyl)benzyl)-2-(4-methoxyphenyl)-3-methyl-1H-indol-5-ol]
Homo sapiens, MCF7, 168 h
  IC50: 1 to 10 nM

## COc1ccc(-c2c(F)c3cc(O)ccc3n2Cc2ccc(CCNC3CC3)cc2)cc1 [Compound D-15, 1-(4-(2-(Cyclopropylamino)ethyl)benzyl)-3-fluoro-2-(4-methoxyphenyl)-1H-indol-5-ol]
Homo sapiens, MCF7, 168 h
  IC50: < 1 nM

## COc1ccc(-c2c(C)c3cc(O)ccc3n2Cc2ccc(CCNC(C)C)cc2)cc1 [Compound D-08, 1-(4-(2-(Isopropylamino)ethyl)benzyl)-2-(4-methoxyphenyl)-3-methyl-1H-indol-5-ol]
Homo sapiens, MCF7, 168 h
  IC50: 1 to 10 nM

## Cc1ccccc1-c1c(F)c2c3cn[nH]c3ccc2n1Cc1ccc(CCNC2CCC2)cc1 [Compound D-89, N-(4-((8-Fluoro-7-(o-tolyl)pyrrolo[3,2-e]indazol-6(3H)-yl)methyl)phenethyl)cyclobutanamine]
Homo sapiens, MCF7, 168 h
  IC50: < 1 nM

## CCNCCc1ccc(Cn2c(-c3c(C)cccc3C)c(F)c3cc(O)ccc32)cc1 [Compound D-78, 2-(2,6-Dimethylphenyl)-1-(4-(2-(ethylamino)ethyl)benzyl)-3-fluoro-1H-indol-5-ol]
Homo sapiens, MCF7, 168 h
  IC50: < 1 nM

## CCNCCc1ccc(C2c3ccc(O)cc3CCC2c2ccc(C(C)C)cc2)cc1 (stereo not shown) [LA-31, 5-(4-(2-(Ethylamino)ethyl)phenyl)-6-(4-isopropylphenyl)-5,6,7,8-tetrahydronaphthalen-2-ol]
Homo sapiens, MCF7, 168 h
  IC50: < 1 nM

## Cc1ccccc1-c1sc2cc(O)ccc2c1Oc1ccc(CCNC2CC2)cc1 [BT-05, 3-(4-(2-(Cyclopropylamino)ethyl)phenoxy)-2-(o-tolyl)benzo[b]thiophen-6-ol]
Homo sapiens, MCF7, 168 h
  IC50: < 1 nM

## Cc1ccccc1-c1c(F)c2c3cn[nH]c3ccc2n1Cc1ccc(CCNCCF)cc1 [Compound D-101, 2-Fluoro-N-(4-((8-fluoro-7-(o-tolyl)pyrrolo[3,2-e]indazol-6(3H)-yl)methyl)phenethyl)ethan-1-amine]
Homo sapiens, MCF7, 168 h
  IC50: < 1 nM

## Cc1cc(O)ccc1-c1c(F)c2cc(O)ccc2n1Cc1ccc(CCNC2CC2)cc1 [Compound D-52, 1-(4-(2-(Cyclopropylamino)ethyl)benzyl)-3-fluoro-2-(4-hydroxy-2-methylphenyl)-1H-indol-5-ol]
Homo sapiens, MCF7, 168 h
  IC50: < 1 nM

## Cc1ccccc1-c1c(F)c2cc(O)ccc2n1Cc1ccc(CC(C)NC2CC2)cc1 [Compound D-32, 1-(4-(2-(Cyclopropylamino)propyl)benzyl)-3-fluoro-2-(o-tolyl)-1H-indol-5-ol]
Homo sapiens, MCF7, 168 h
  IC50: < 1 nM

## CC(C)c1ccc(C2CCc3cc(O)ccc3C2c2ccc(CCNCC3CC3)cc2)cc1 (stereo not shown) [LA-33, 5-(4-(2-((Cyclopropylmethyl)amino)ethyl)phenyl)-6-(4-isopropylphenyl)-5,6,7,8-tetrahydronaphthalen-2-ol]
Homo sapiens, MCF7, 168 h
  IC50: < 1 nM

## Cc1cc(F)ccc1-c1c(F)c2cc(O)ccc2n1Cc1ccc(CCNC2CC2)cc1 [Compound D-36, 1-(4-(2-(Cyclopropylamino)ethyl)benzyl)-3-fluoro-2-(4-fluoro-2-methylphenyl)-1H-indol-5-ol]
Homo sapiens, MCF7, 168 h
  IC50: < 1 nM

## COc1ccc(-c2c(C)c3cc(O)ccc3n2Cc2ccc(CCNCC3CC3)cc2)cc1 [Compound D-03, 1-(4-(2-((Cyclopropylmethyl)amino)ethyl)benzyl)-2-(4-methoxyphenyl)-3-methyl-1H-indol-5-ol]
Homo sapiens, MCF7, 168 h
  IC50: 1 to 10 nM

## CCCNCCc1ccc(Cn2c(-c3ccccc3C)c(F)c3cc(O)ccc32)cc1 [Compound D-67, 3-Fluoro-1-(4-(2-(propylamino)ethyl)benzyl)-2-(o-tolyl)-1H-indol-5-01]
  IC50: < 1 nM

## CCNCCc1ccc(CC2=C(c3ccccc3C)CCOc3cc(O)ccc32)cc1 [Bx-07, 5-(4-(2-(Ethylamino)ethyl)benzyl)-4-(o-tolyl)-2,3-dihydrobenzo[b]oxepin-8-ol]
Homo sapiens, MCF7, 168 h
  IC50: < 1 nM
